# “Also recorded” adds a separate entry of the source.
# Columns and labels:
# rat A3 AR = molecular target: T1, rat A3 AR (Rattus norvegicus, UniProt P28647); assay: Radioligand binding at rat A3 AR; conditions: for Binding affinity at the rat A3 AR (in words): CHO cells
# T1 sequence (P28647 1-320): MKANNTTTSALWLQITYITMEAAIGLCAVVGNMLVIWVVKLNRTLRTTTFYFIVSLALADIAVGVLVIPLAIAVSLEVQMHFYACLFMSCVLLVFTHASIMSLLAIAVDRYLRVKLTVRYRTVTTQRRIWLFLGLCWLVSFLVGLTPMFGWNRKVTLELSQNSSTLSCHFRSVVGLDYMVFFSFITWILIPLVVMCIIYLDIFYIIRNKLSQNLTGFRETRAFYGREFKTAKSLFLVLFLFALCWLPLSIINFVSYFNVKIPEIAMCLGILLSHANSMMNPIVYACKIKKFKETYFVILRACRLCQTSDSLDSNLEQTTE
# human A2B AR = conditions: cited from earlier work
# human A3 AR = molecular target: T2, human A3 AR (Homo sapiens, UniProt P0DMS8); assay: Radioligand binding at human A3 AR; conditions: stated for all subtypes of ARs (hA1, hA2A, hA3)
# T2 sequence (P0DMS8 1-318): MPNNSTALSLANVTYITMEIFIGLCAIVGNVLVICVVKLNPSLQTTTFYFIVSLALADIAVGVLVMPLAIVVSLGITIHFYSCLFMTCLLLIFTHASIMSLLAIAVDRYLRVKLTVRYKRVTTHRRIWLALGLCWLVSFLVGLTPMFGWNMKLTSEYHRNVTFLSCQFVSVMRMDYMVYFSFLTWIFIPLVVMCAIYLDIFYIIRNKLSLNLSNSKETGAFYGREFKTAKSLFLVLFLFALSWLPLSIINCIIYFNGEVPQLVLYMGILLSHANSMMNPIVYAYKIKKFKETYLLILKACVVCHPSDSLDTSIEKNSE
smiles,measurement,setting,value
CNc1nc(Cl)nc2c1ncn2[C@@H]1SC[C@@H](O)[C@H]1O [Compound 6a],Ki,rat A3 AR,658 ± 160 nM
same,Binding affinity at the rat A3 AR (in words),rat A3 AR,lost their binding affinities
O[C@@H]1[C@H](O)CS[C@H]1n1cnc2c(NCc3cccc(F)c3)nc(Cl)nc21 [Compound 6b],Ki,rat A3 AR,36.2 ± 10.7 nM
O[C@@H]1[C@H](O)CS[C@H]1n1cnc2c(NCc3cccc(Br)c3)nc(Cl)nc21 [Compound 6d],Ki,rat A3 AR,6.1 ± 1.8 nM
O[C@@H]1[C@H](O)CS[C@H]1n1cnc2c(NCc3cccc(I)c3)nc(Cl)nc21 [Compound 6e],Activity as agonist or antagonist in a cyclic AMP functional assay at the hA2B AR,human A2B AR,inactive as agonist or antagonist
"CNc1ncnc2c1ncn2[C@@H]1SC[C@@H](O)[C@H]1O [Compound 7a, (2R,3R,4S)-Tetrahydro-2-(6-(methylamino)-9H-purin-9-yl)thiophene-3,4-diol]",Binding affinity at the rat A3 AR (in words),rat A3 AR,totally devoid of A3AR binding affinity; also recorded: lost their binding affinities
O[C@H]1[C@@H](O)CS[C@@H]1n1cnc2c(NCc3cccc(Br)c3)nc(Cl)nc21 [Compound 7f],Binding affinity (in words),human A3 AR,totally devoid of binding affinities
O[C@H]1[C@@H](O)CS[C@@H]1n1cnc2c(NCc3cccc(I)c3)nc(Cl)nc21 [Compound 7g],Binding affinity (in words),human A3 AR,totally devoid of binding affinities
